Assay results taken from patent US5220002A, “Deacetylcolchicine derivatives” (Ohgen Research Laboratories, Ltd., priority 1990, dated 1993).
≈ marks a conversion by molar mass, not a printed value.

What was measured:
Sarcoma 180 solid tumor = assay: In vivo test on Sarcoma 180 solid tumor transplanted mice; set-up: species or system mouse (ddY female); settings: for Average tumor weight (mean ± SD, g): once a day over 10 days from 6th day, tumor taken out 30 days after transplantation; for Percent inhibition: tumor weight, 30 days after transplantation
Description: 2×10^6 Sarcoma 180 cells are transplanted subcutaneously in the back of each of 6-week old ddY female mice. Over 10 days from the 6th day after the tumor transplantation in groups each consisting of 6 mices, the test compound (which is dissolved in propylene glycol and diluted with a phosphate buffer solution such that the final concentration of propylene glycol becomes 20% or less) is continuously administered in the abdominal cavity once a day. Thirty days after the tumor transplantation, the tumor is taken out. Its weight is measured, and an average tumor weight and percent inhibition* are measured. [formula]

[1] = test system: Sarcoma 180 ascites tumor; assay: In vivo test on Sarcoma 180 ascites tumor transplanted mice; set-up: species or system mouse (ddY male); settings: once a day over 7 days; for Average number of survival days (mean ± SD): 6 mice per group; for Cured example: groups of 6 mice
Description: 1×10^6 Sarcoma 180 cells are transplanted in an abdominal cavity of each of 6-week old ddY male mice. Over 7 days after the first day of transplantation of tumor cells in groups each consisting of 6 mice, the test compound (which is dissolved in propyplene glycol and diluted with a phosphate buffer solution such that the final concentration of propylene glycol becomes 20% or less) is administered in the abdominal cavity once a day, and an average number of survival days and percent prolongation* are measured. [formula]

[2] = test system: Adriamycin-resistant mouse leukemic cells P388/ADR; assay: In vitro tumor cell proliferation inhibiting test (Adriamycin-resistant mouse leukemic cells P388/ADR); assay type: cell-based; settings: 48 h, 2×10^5, RPMI 1640 with 10% bovine fetal serum, 2 days, read-out: 50% proliferation inhibitory concentration: IC50
Description: 2×10^5 Adriamycin-resistant mouse leukemic cells P388/ADR are suspended in a RPMI 1640 culture medium containing 10% of a bovine fetal serum, and cultured for 2 days in the presence of a test compound (the test compound is dissolved in dimethyl sulfoxide such that the concentration becomes 1 mg/ml, and this is diluted with a phosphate buffer solution). An influence on cell proliferation is investigated, and 50% proliferation inhibitory concentration: IC50 value (μg/ml) is determined.

Acute toxicity test = assay: Acute toxicity test; set-up: species or system mouse (ddY male); settings: mouse, in vivo, mortality for 1 week, Litchfield-Wilcoxon method
Description: The test compound is administered to each 5-week old ddY male mouse, and mortality is observed for 1 week. A 50% lethal dose (LD50) is calculated from the number of mice died in each group by a Litchfield-Wilcoxon method. The test compound (compound (a)) is suspended in 10% propylene glycol. Ten dilution gradients are prepared from the maximum concentration 80 mg/kg at a ratio of 1.2, and the test is carried out.

COc1cc2c(c(OC)c1OC)-c1ccc(OC)c(=O)cc1C(NC(=O)[C@@H]1COC(C)(C)O1)CC2 (stereo partly shown) [Compound 1a, Deacetylcolchicine-glyceric Acid Acetonideamide]
Average tumor weight (mean ± SD, g) (Sarcoma 180 solid tumor; 0.625 μg/kg i.p.): 0.71 ± 0.38 g
Percent inhibition (Sarcoma 180 solid tumor; 0.625 μg/kg i.p.): 49.6%
Average tumor weight (mean ± SD, g) (Sarcoma 180 solid tumor; 1.25 μg/kg i.p.): 0.88 ± 0.78 g
Percent inhibition (Sarcoma 180 solid tumor; 1.25 μg/kg i.p.): 47.6%
Average tumor weight (mean ± SD, g) (Sarcoma 180 solid tumor; 2.5 μg/kg i.p.): 0.63 ± 0.51 g
Percent inhibition (Sarcoma 180 solid tumor; 2.5 μg/kg i.p.): 55.3%
Average tumor weight (mean ± SD, g) (Sarcoma 180 solid tumor; 5.0 μg/kg i.p.): 0.60 ± 0.52 g
Percent inhibition (Sarcoma 180 solid tumor; 5.0 μg/kg i.p.): 57.4%
Percent prolongation ([1]; 0.31 mg/kg i.p.): 188%
Average number of survival days (mean ± SD) ([1]; 0.31 mg/kg i.p.): 36.0 ± 8.0 days
Percent prolongation ([1]; 0.63 mg/kg i.p.): 281%
Average number of survival days (mean ± SD) ([1]; 0.63 mg/kg i.p.): 47.7 ± 11.1 days
Cured example ([1]; 0.63 mg/kg i.p.): 1
Percent prolongation ([1]; 1.25 mg/kg i.p.): 277%
Average number of survival days (mean ± SD) ([1]; 1.25 mg/kg i.p.): 47.2 ± 11.5 days
Cured example ([1]; 1.25 mg/kg i.p.): 2
Percent prolongation ([1]; 2.5 mg/kg i.p.): 333%
Average number of survival days (mean ± SD) ([1]; 2.5 mg/kg i.p.): 54.2 ± 11.6 days
Cured example ([1]; 2.5 mg/kg i.p.): 4
IC50 [2]: 0.036 µg/mL (≈ 0.0741 µM)
LD50 at 168 h (Acute toxicity test; ip, intraperitoneal): 42 mg/kg
LD50 at 168 h (Acute toxicity test; intravenous): 38 mg/kg

COc1cc2c(c(OC)c1OC)-c1ccc(OC)c(=O)cc1C(NC(=O)[C@H]1COC(C)(C)O1)CC2 (stereo partly shown) [Compound 1b, Deacetylcolchicine-glyceric Acid Acetonideamide]
Percent prolongation ([1]; 1.25 mg/kg i.p.): 240%
Average number of survival days (mean ± SD) ([1]; 1.25 mg/kg i.p.): 42.5 ± 15.4 days
Cured example ([1]; 1.25 mg/kg i.p.): 1
Percent prolongation ([1]; 2.5 mg/kg i.p.): 356%
Average number of survival days (mean ± SD) ([1]; 2.5 mg/kg i.p.): 57.0 ± 7.3 days
Cured example ([1]; 2.5 mg/kg i.p.): 5
Percent prolongation ([1]; 5 mg/kg i.p.): 356%
Average number of survival days (mean ± SD) ([1]; 5 mg/kg i.p.): 57.0 ± 5.3 days
Cured example ([1]; 5 mg/kg i.p.): 4
IC50 [2]: 0.066 µg/mL (≈ 0.136 µM)

COc1cc2c(c(OC)c1OC)-c1ccc(OC)c(=O)cc1C(NC(=O)[C@H]1O[C@H](OC(C)=O)[C@H](O)[C@@H](O)[C@@H]1OC(C)=O)CC2 (stereo partly shown) [Compound 4, Deacetylcolchicine-glucuronic acid diacetateamide]
IC50 [2]: 0.034 µg/mL

COc1cc2c(c(OC)c1OC)-c1ccc(OC)c(=O)cc1C(NC(=O)[C@H]1O[C@H](O)[C@H](O)[C@@H](O)[C@@H]1O)CC2 (stereo partly shown) [Compound 5, N-(5,6,7,9-tetrahydro-1,2,3,10-tetramethoxy-9-oxobenzo[a]heptalen-7-yl)glucuroneamide]
IC50 [2]: 0.037 µg/mL (≈ 0.0693 µM)
